Legend:
CRTH2 [1] = target: T1, CRTH2 (Homo sapiens (Human), UniProt Q9Y5Y4); assay: Radioligand binding assay ([3H]PGD2 displacement, hCRTH2 HEK293 (EBNA) cell membranes); details: 1.5 nM [3H]PGD2, 10 μg hCRTH2 HEK293 (EBNA) membrane protein, 60 min room temperature; test concentration not given
Excerpt: Human CRTH2 cDNA was amplified by PCR using a human urinary bladder cDNA library as a template and specific primers containing HindIII and BamHI restriction sites for cloning into the pCEP4 vector (Invitrogen). The vector construction is described in detail in Sawyer et al., Br. J. Pharmocol 2002, 137, 1163-72. The nucleotide sequence of the cloned cDNA was identical the previously reported hCRTH2 sequence (Nagata et al, 1999, J. Immunol. 162, 1278-1286).
HEK293 (EBNA) cells were transfected with the pCEP4-hCRTH2 construct using the calcium phosphate technique. Cells were maintained in culture at 37° C. in an atmosphere of 5% CO2 in Dulbecco's modified Eagle's F12 medium (Invitrogen), containing 10% heat-inactivated foetal calf serum (TerraCell International, Canada), 2 mM Glutamine, 100 units/ml of penicillin and 100 μg/ml streptomycin (Invitrogen). 48 hours after the transfection, cells were grown in presence of 300 μg/ml of Hygromycin B (Invitrogen) for 4 weeks and antibiotic resistant cells were amplified for cell membrane preparation.
Adherent HEK293 (EBNA) cells expressing hCRTH2 were cultured in 225 cm^2 cell culture flasks (Corning, USA) in 30 ml of medium. After two rinses of phosphate buffered saline (PBS), cells were harvested in 10 ml of PBS containing 1 mM EDTA, centrifuged at 500×g for 5 min at 4° C. and frozen at −80° C. The pellet was re-suspended in 50 mM Tris-HCl, pH 7.4, 2 mM EDTA, 250 mM Sucrose, containing protease inhibitor cocktail tablets, (Complete EDTA-free, Roche, Germany) and incubated 30 min at 4° C. Cells were disrupted by nitrogen cavitation (Parr Instruments, USA) at 4° C. (800 p.s.i. for 30 min), and centrifuged at 500×g for 10 min at 4° C. Pellet containing nuclei and cellular debris was discarded and supernatant was centrifuged 60 min at 4° C. at 45000×g. Membrane pellet was re-suspended in storage buffer (10 mM HEPES/KOH pH 7.4, 1 mM EDTA, 250 mM sucrose, protease inhibitor cocktail tablets) using Dounce homogenization and frozen in liquid nitrogen, and stored at −80° C.
(§1) The inhibitory activity can be investigated by a radioligand binding assay (Sawyer et al., Br. J. Pharmocol 2002, 137, 1163-72). The radioligand binding assay was performed at room temperature in binding buffer (10 mM HEPES/KOH pH […], with protease inhibitor cocktail tablets), containing 1.5 nM [^3H]PGD2 (Amersham, 156 Cie/mmol), and 10 μg of hCRTH2 HEK293 (EBNA) cell membrane protein in a final volume of 100 μl in 96 well plates (Corning, USA). Non-specific binding was determined in the presence of 1 μM PGD2 (Cayman, USA). Competing pyrazine sulfonamides were diluted in dimethylsulphoxide so that the total volume of dimethylsulfoxide was kept constant at 1% dimethylsulphoxide (Me2SO). 10 μl of the pyrazine sulfonamides were added. Incubation (60 min at room temperature) was terminated by rapid filtration through 96 wells hydrophobic GF/C Unifilter plates (Whatman, USA). Filters were washed twice with 250 μl of Tris-HCl pH 7.4, 10 mM MnCl2, and residual radioligand bound to the filters was mixed to 100 μl of liquid scintillation cocktail (Optiphase Supermix, Perkin Elmer, USA) and binding activity was determined by counting residual radioligand using a 1450 Micro-beta scintillation counter (Wallac, UK).

CRTH2 [2] = target: T1, CRTH2; assay: Determination of Ki, equilibrium competition binding against [3H]PGD2; details: competition against [3H]PGD2; average of at least three independent dose response experiments; Ki calculated from IC50
Procedure: as §1
Ki values were determined by equilibrium competition binding experiments against [^3H]PGD2. Ki values were calculated from the formula below and represent the average of at least three independent dose response experiments. The Ki values give the ligand concentrations necessary to inhibit 50% of the binding of 3[H]PGD2 to CRTH2. Ki=IC50/(1+[Concentration of Ligand]/Kd)]
All experiments were performed in 96 well plates, in a final volume of 100 μl according to the above described filtration assay. The concentration of membranes and 3[H]PGD2, as well as the positive and negative controls were identical to the conditions described above.

CRTH2 [3] = target: T1, CRTH2; assay: [35S]GTPγS binding assay; assay type: biochemical; details: inhibition of [35S]GTPγS binding, membranes expressing hCRTH2, 80 nM PGD2 (antagonist activity)
Procedure: The [^35S]GTPγS assay measures the increase in guanine nucleotide exchange at G-proteins in cell membranes, resulting from agonist (PGD2) binding to CRTH2. This process can be monitored in vitro by incubating cell membranes containing G-proteins and CRTH2 with GDP and [^35S]GTPγS, a radiolabeled, hydrolysis-resistant analogue of GTP (see, Harrison et al., Life Sciences 74, 489-508, 2003). The addition of a pyrazine sulfonamide results in binding to CRTH2 and thus in an inhibition of agonist binding, which can be monitored as inhibition of the stimulation of GTP/GDP exchange.
Assay conditions were identical to conditions of radioligand binding assay as described in Example 21. The [^35S]GTPγS binding assay was performed at 30° C. with gentle agitation in 96-well scintillating white polystyrene plates (Perkin Elmer, USA), in a final volume of 200 μl, containing 2% of dimethylsulphoxide (Me2SO). The 2,3 substituted pyrazine sulfonamides were incubated in 20 mM HEPES/KOH pH 7.4, 1 mM MgCl2, 10 μg/ml Saponin, 3 μM GDP, 150 mM NaCl containing 10 μg of membranes expressing the hCRTH2 receptor (Euroscreen, Belgium) for 10 min. Non-specific binding was determined in the presence of 10 μM of GTPγS. Samples were incubated for 30 min in the presence of increasing concentrations of PGD2 for the determination of agonist activity, or with 80 nM of PGD2 for determination of antagonist activity, respectively. 0.15 nM of [^35S]GTPγS were subsequently added to each sample and after incubation of 30 min reactions were stopped by centrifugation at 1000×g, at 4° C. for 10 min. Supernatant was removed and [^35S]GTPγS binding was determined using a 1450 Micro-beta scintillation counter. Data were analysed using “Prism” (GraphPad Software, Inc. San Diego, USA). The determination of the IC50 values (i.e. the amount necessary to achieve 50% inhibition of binding (in μM)) were performed in 96 well plates, in a final volume of 100 μl according to the above described filtration assay. […]

T1 sequence (Q9Y5Y4 whole entry): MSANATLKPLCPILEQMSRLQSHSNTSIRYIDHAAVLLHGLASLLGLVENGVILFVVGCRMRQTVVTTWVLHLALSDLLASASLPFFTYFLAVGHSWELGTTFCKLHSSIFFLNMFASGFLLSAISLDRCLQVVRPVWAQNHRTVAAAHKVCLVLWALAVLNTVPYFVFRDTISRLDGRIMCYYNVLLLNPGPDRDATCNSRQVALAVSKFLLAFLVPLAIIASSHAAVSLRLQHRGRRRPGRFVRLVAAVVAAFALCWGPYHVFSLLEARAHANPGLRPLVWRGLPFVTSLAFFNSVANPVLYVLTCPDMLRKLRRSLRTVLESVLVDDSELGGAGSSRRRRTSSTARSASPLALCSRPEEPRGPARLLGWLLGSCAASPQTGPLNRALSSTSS

Structure (SMILES) | Inhibition hCRTH2 [%] (CRTH2 [1]) | Ki (CRTH2 [2]) | IC50 (CRTH2 [3])
CCc1nc2ccccc2n1Cc1ccc(-c2nccnc2NS(=O)(=O)c2ccccc2C(F)(F)F)cc1 [Compound 3, N-(3-{4-[(2-ethyl-1H-benzimidazol-1-yl)methyl]phenyl}pyrazin-2-yl)-2-(trifluoromethyl)benzenesulfonamide] | 86.5% | 0.45 µM | 1.4 µM
O=S(=O)(Nc1nccnc1-c1ccc(Cn2ccc3ccccc32)cc1)c1ccccc1C(F)(F)F [Compound 1, N-{3-[4-(1H-indol-1-ylmethyl)phenyl]pyrazin-2-yl}-2-(trifluoromethyl)benzene-sulfonamide] | 94.5% | 1.01 µM | 1.9 µM
CN(Cc1ccc(-c2nccnc2NS(=O)(=O)c2ccccc2Cl)cc1)c1ccc(OC(F)(F)F)cc1 [Compound 2, 2-chloro-N-{3-[4-({methyl[4-(trifluoromethoxy)phenyl]amino}-methyl)-phenyl]pyrazin-2-yl}benzene sulfonamide] | 91.5% | 1.26 µM | 4.6 µM

Reference: patent US8796280B2, “2,3-disubstituted pyrazinesulfonamides as CRTH2 inhibitors” (Merck Serono, S.A., priority 2005, dated 2014)
